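All cell lines were grown in 96-well plates and treated with compound for 48 hours. Abbreviation: GI50, concentration required for 50% inhibition of growth. TGI denotes the concentration required for complete inhibition of growth.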
Legend:
Assay in all cases: growth of human tumour cells (NCI), 48 h
EKVX NSCLC = tested on: EKVX NSCLC
LOX IMVI melanoma = tested on: LOX IMVI melanoma
HT29 colon = tested on: HT29 colon
HCC-2998 colon = tested on: HCC-2998 colon
SK-OV-3 ovarian = tested on: SK-OV-3 ovarian
IGROV1 ovarian = tested on: IGROV1 ovarian
ACHN renal = tested on: ACHN renal
SW-620 colon = tested on: SW-620 colon
UO-31 renal = tested on: UO-31 renal
SNB-19 CNS = tested on: SNB-19 CNS
HOP-62 NSCLC = tested on: HOP-62 NSCLC
UACC-62 melanoma = tested on: UACC-62 melanoma
NCI-H460 lung = tested on: NCI-H460 lung
SK-MEL-5 melanoma = tested on: SK-MEL-5 melanoma
OVCAR-3 ovarian = tested on: OVCAR-3 ovarian
TK-10 renal = tested on: TK-10 renal
K-562 leukemia = tested on: K-562 leukemia
SF-268 CNS = tested on: SF-268 CNS
SN12C renal = tested on: SN12C renal
UACC-257 melanoma = tested on: UACC-257 melanoma
A549 NSCLC = tested on: A549 NSCLC
COLO 205 colon = tested on: COLO 205 colon
SNB-75 CNS = tested on: SNB-75 CNS
786-0 renal = tested on: 786-0 renal
SR leukemia = tested on: SR leukemia
M14 melanoma = tested on: M14 melanoma
HCT-116 colon = tested on: HCT-116 colon
NCI-H23 lung = tested on: NCI-H23 lung
RXF 393 renal = tested on: RXF 393 renal
OVCAR-5 ovarian = tested on: OVCAR-5 ovarian
HL-60(TB) leukemia = tested on: HL-60(TB) leukemia
NCI-H522 lung = tested on: NCI-H522 lung
SF-295 CNS = tested on: SF-295 CNS
MALME-3M melanoma = tested on: MALME-3M melanoma
HCT-15 colon = tested on: HCT-15 colon
KM12 colon = tested on: KM12 colon
HOP-92 NSCLC = tested on: HOP-92 NSCLC
CCRF-CEM leukemia = tested on: CCRF-CEM leukemia
SK-MEL-2 melanoma = tested on: SK-MEL-2 melanoma
NCI-H226 lung = tested on: NCI-H226 lung
SK-MEL-28 melanoma = tested on: SK-MEL-28 melanoma
RPMI-8226 leukemia = tested on: RPMI-8226 leukemia
OVCAR-8 ovarian = tested on: OVCAR-8 ovarian
SF-539 CNS = tested on: SF-539 CNS
KM20L2 colon = tested on: KM20L2 colon
MOLT-4 leukemia = tested on: MOLT-4 leukemia

## O=C(N/N=C/c1cc(Cl)cc(Cl)c1[OH2+])c1ccncc1.O=S(=O)([O-])[O-].[Fe+2]
EKVX NSCLC
  TGI: 29 µM
LOX IMVI melanoma
  TGI: 0.332 µM
HT29 colon
  TGI: 28.6 µM
HCC-2998 colon
  TGI: > 100 µM
SK-OV-3 ovarian
  TGI: > 100 µM
IGROV1 ovarian
  TGI: 15.4 µM
ACHN renal
  TGI: 28.1 µM
SW-620 colon
  TGI: > 100 µM
UO-31 renal
  TGI: 31.1 µM
SNB-19 CNS
  TGI: > 100 µM
HOP-62 NSCLC
  TGI: 34.9 µM
UACC-62 melanoma
  TGI: 41 µM
NCI-H460 lung
  TGI: 22.4 µM
SK-MEL-5 melanoma
  TGI: > 100 µM
OVCAR-3 ovarian
  TGI: 53.8 µM
TK-10 renal
  TGI: 56 µM
K-562 leukemia
  TGI: 51.4 µM
SF-268 CNS
  TGI: > 100 µM
SN12C renal
  TGI: 79.3 µM
UACC-257 melanoma
  TGI: 41.7 µM
A549 NSCLC
  TGI: 53.9 µM
COLO 205 colon
  TGI: 40.5 µM
SNB-75 CNS
  TGI: > 100 µM
786-0 renal
  TGI: 53.9 µM
SR leukemia
  TGI: 54.6 µM
M14 melanoma
  TGI: 41.1 µM
HCT-116 colon
  TGI: 29.6 µM
NCI-H23 lung
  TGI: 51.3 µM
RXF 393 renal
  TGI: 82.1 µM
OVCAR-5 ovarian
  TGI: 49.8 µM
HL-60(TB) leukemia
  TGI: 2.09 µM
NCI-H522 lung
  TGI: 7.44 µM
SF-295 CNS
  TGI: 35.3 µM
MALME-3M melanoma
  TGI: 29.3 µM
HCT-15 colon
  TGI: 35.2 µM
KM12 colon
  TGI: 29.4 µM
HOP-92 NSCLC
  GI50: 3.71 µM
  TGI: 9.66 µM
CCRF-CEM leukemia
  TGI: 15.8 µM
SK-MEL-2 melanoma
  GI50: 82.9 µM
  TGI: 94.9 µM
NCI-H226 lung
  TGI: 41.9 µM
SK-MEL-28 melanoma
  TGI: > 100 µM
RPMI-8226 leukemia
  TGI: 5.98 µM
OVCAR-8 ovarian
  TGI: > 100 µM
SF-539 CNS
  TGI: 36.4 µM
KM20L2 colon
  TGI: 36.3 µM
MOLT-4 leukemia
  TGI: 40 µM

Reference: PubChem BioAssay (NCI)
